Measured values reported in patent publication EP4745135A1 (Gluetacs Therapeutics (Shanghai) Co., Ltd., priority 2023, dated 2025).

Columns and labels:
[1] = biological target: T1, human Cereblon WT GST-tagged protein (Homo sapiens, UniProt Q96SW2); experiment: CRBN-binding affinity, HTRF (CEREBLON BINDING kit); conditions: for inhibition at 0.5 µM: read-out: Inhibition Rate at 0.5 µM (%); for inhibition at 2 µM: read-out: Inhibition Rate at 2 µM (%)
T1 construct: purchased CISBIO 64BDCRBNPEH

[2] = test system: GSPT1; experiment: Western blot, degradation of substrate protein in hPBMCs; assay type: cell-based, Human
[3] = biological target: T2, IKZF1 (Homo sapiens, UniProt Q13422+Q96SW2); experiment: as above; assay type: cell-based
T2 construct: effects of the compounds of the present disclosure on the expression of target proteins in cells; endogenous in cells; host or cells: human PBMCs (Milecell Biotechnologies)

[4] = biological target: T3, IKZF3 (Homo sapiens, UniProt Q96SW2+Q9UKT9); experiment: as above; assay type: cell-based
T3 construct: effects of the compounds of the present disclosure on the expression of target proteins in cells; endogenous in cells; host or cells: human PBMCs (Milecell Biotechnologies)

[5] = biological target: T4, WEE1 (Homo sapiens, UniProt P30291+Q96SW2); experiment: as above; assay type: cell-based
T4 construct: effects of the compounds of the present disclosure on the expression of target proteins in cells; endogenous in cells; host or cells: human PBMCs (Milecell Biotechnologies)

[6] = biological target: T5, CK1α (Homo sapiens, UniProt P48729+Q96SW2); experiment: as above; assay type: cell-based
T5 construct: effects of the compounds of the present disclosure on the expression of target proteins in cells; endogenous in cells; host or cells: human PBMCs (Milecell Biotechnologies)

[7] = biological target: T6, IKZF2 (Homo sapiens, UniProt Q96SW2+Q9UKS7); experiment: as above; assay type: cell-based
T6 construct: effects of the compounds of the present disclosure on the expression of target proteins in cells; endogenous in cells; host or cells: human PBMCs (Milecell Biotechnologies)

[8] = 24 hours treatment, compounds at 50 nM and 500 nM (concentration behind the class not stated)
[9] = Western blot, 24 hours of compound treatment, compounds tested at 50 nM and 500 nM (concentration for the table not stated)

T2 sequence (Q13422 whole entry): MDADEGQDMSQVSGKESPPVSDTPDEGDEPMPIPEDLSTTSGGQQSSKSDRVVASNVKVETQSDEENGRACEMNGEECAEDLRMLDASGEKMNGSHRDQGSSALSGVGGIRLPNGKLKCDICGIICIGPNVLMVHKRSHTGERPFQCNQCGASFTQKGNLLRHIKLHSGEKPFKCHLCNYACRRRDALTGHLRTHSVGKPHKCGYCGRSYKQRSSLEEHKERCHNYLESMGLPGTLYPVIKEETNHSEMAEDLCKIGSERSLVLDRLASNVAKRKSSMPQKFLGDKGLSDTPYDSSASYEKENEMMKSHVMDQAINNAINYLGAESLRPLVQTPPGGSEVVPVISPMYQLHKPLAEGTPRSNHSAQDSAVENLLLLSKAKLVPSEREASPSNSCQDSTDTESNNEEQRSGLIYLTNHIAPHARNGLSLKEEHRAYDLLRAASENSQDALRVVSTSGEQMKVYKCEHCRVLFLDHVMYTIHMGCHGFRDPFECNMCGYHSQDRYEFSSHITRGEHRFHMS
T2 sequence (Q96SW2 whole entry): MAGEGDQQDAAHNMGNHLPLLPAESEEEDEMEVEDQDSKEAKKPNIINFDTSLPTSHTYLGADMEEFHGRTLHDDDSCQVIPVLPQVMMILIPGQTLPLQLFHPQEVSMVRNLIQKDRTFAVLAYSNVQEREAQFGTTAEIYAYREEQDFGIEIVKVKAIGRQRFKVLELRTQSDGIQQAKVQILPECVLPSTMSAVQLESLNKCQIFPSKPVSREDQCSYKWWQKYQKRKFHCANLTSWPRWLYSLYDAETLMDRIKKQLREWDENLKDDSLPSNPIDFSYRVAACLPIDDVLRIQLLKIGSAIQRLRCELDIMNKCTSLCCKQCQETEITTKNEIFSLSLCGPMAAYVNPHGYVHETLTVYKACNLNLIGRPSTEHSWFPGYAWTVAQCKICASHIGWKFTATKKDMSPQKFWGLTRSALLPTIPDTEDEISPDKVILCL
T2 sequence (Q16531 whole entry partner): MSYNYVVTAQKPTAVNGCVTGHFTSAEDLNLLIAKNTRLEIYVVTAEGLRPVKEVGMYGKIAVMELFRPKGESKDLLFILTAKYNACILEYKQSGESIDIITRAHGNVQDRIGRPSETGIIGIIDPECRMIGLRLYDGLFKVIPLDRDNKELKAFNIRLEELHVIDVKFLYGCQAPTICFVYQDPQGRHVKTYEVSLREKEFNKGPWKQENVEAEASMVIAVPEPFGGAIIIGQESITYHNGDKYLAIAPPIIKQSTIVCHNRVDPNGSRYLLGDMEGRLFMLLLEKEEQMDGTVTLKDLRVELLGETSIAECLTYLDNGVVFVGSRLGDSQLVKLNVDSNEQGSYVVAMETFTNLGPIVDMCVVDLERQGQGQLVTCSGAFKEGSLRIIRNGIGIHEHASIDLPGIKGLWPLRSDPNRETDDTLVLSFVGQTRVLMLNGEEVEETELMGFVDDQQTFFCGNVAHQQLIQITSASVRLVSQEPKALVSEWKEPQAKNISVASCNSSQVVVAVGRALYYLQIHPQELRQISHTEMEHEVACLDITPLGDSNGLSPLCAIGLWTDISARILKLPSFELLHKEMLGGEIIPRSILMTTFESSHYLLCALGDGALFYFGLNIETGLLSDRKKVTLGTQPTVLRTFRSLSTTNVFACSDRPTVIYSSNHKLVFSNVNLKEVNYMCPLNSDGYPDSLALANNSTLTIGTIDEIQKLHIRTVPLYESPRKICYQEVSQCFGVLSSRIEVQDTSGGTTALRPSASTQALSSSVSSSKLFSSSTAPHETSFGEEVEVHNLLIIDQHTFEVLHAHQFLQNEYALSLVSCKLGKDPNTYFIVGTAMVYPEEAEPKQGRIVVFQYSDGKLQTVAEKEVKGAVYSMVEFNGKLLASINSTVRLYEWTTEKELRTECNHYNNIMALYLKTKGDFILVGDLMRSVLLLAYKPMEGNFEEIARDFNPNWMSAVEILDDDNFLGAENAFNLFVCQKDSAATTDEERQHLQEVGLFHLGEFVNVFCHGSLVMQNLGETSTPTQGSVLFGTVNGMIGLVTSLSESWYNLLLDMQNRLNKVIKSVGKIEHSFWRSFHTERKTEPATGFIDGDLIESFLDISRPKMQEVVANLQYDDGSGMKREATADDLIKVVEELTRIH
T6 sequence (Q9UKS7 whole entry): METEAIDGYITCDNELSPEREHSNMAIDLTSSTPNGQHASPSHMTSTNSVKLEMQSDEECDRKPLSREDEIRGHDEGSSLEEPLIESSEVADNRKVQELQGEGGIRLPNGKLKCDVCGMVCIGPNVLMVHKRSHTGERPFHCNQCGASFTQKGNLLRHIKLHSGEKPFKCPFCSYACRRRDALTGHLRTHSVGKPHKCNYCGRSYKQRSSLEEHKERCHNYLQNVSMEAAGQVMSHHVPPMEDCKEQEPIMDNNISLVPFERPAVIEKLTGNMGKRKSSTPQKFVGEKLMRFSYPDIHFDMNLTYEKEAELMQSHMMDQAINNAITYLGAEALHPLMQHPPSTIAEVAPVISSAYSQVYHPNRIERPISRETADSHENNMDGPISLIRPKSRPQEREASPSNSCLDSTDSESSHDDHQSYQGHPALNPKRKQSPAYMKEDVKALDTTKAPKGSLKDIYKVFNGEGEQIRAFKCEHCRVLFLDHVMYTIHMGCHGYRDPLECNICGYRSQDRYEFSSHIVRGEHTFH
T6 sequence (Q96SW2 whole entry): as the sequence (Q96SW2 whole entry) above
T6 sequence (Q16531 whole entry partner): as the sequence (Q16531 whole entry partner) above
T1 sequence (Q96SW2 whole entry): as the sequence (Q96SW2 whole entry) above
T3 sequence (Q9UKT9 whole entry): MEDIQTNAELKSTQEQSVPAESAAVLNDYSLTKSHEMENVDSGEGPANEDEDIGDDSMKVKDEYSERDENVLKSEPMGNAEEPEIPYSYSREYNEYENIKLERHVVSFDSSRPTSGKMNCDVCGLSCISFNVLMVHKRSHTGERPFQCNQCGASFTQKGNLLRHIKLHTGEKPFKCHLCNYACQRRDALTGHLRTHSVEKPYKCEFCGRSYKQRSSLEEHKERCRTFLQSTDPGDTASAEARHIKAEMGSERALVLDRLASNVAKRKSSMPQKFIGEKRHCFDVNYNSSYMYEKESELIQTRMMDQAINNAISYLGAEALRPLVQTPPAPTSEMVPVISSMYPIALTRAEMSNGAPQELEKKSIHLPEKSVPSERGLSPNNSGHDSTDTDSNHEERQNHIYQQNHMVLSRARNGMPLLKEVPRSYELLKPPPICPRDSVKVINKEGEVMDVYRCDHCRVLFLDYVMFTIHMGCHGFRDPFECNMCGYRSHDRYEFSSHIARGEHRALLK
T3 sequence (Q96SW2 whole entry): as the sequence (Q96SW2 whole entry) above
T3 sequence (Q16531 whole entry partner): as the sequence (Q16531 whole entry partner) above
T5 sequence (P48729 whole entry): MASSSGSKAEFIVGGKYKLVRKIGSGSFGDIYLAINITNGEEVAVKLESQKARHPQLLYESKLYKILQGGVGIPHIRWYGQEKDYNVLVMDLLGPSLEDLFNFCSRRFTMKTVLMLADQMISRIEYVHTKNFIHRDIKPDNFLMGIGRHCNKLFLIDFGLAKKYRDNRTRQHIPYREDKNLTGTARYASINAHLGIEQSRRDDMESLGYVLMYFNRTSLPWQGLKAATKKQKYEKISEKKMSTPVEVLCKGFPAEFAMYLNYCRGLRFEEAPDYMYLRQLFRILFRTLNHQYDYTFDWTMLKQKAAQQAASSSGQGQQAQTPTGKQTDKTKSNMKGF
T5 sequence (Q96SW2 whole entry): as the sequence (Q96SW2 whole entry) above
T5 sequence (Q16531 whole entry partner): as the sequence (Q16531 whole entry partner) above
T4 sequence (P30291 whole entry): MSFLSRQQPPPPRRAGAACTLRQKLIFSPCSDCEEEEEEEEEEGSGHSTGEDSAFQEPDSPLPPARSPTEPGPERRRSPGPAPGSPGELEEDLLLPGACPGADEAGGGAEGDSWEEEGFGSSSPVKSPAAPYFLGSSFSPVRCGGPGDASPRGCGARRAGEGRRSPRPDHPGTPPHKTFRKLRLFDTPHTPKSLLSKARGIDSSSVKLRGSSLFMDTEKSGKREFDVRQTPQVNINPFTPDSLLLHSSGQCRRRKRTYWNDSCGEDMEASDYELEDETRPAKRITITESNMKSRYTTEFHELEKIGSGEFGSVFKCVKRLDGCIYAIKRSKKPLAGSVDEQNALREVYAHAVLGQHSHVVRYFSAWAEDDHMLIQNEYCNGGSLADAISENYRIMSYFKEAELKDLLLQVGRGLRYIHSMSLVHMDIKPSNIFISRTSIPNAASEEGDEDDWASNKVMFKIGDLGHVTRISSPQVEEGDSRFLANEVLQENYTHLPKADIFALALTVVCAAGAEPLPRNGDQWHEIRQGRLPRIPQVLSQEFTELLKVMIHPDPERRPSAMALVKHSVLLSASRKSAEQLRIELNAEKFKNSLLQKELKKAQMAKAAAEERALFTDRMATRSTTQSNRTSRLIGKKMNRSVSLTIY
T4 sequence (Q96SW2 whole entry): as the sequence (Q96SW2 whole entry) above
T4 sequence (Q16531 whole entry partner): as the sequence (Q16531 whole entry partner) above

Compound | inhibition at 0.5 µM [1] [%] | inhibition at 2 µM [1] [%] | GSPT1 substrate protein remaining % [2, 8] | IKZF 1 substrate protein remaining % [3, 8] | IKZF3 substrate protein remaining % [4, 8] | Wee1 substrate protein remaining % [5, 8] | CK1α substrate protein remaining % [6, 8] | IKZF2 substrate protein remaining % [7, 8] | GSPT1 substrate protein remaining % [2, 9] | IKZF 1 substrate protein remaining % [3, 9] | IKZF3 substrate protein remaining % [4, 9] | Wee1 substrate protein remaining % [5, 9] | CK1α substrate protein remaining % [6, 9] | IKZF2 substrate protein remaining % [7, 9]
O=C1CCC(N2Cc3c(CN4CC=C(c5ncnc6sc7c(c56)CCC7)CC4)cccc3C2=S)C(=O)N1 (stereo not shown) [GT-08963, 3-(4-((4-(6,7-dihydro-5H-cyclopenta[4,5]thieno[2,3-d]pyrimidin-4-yl)-3,6-dihydropyridin-1(2H)-yl)methyl)-1-thioxoisoindolin-2-yl)piperidine-2,6-dione] | 60 to 80 | 80 to 100 | B (80%< substrate protein remaining %≤ 100%) | B (80%< substrate protein remaining %≤ 100%) | B (80%< substrate protein remaining %≤ 100%) | A (0% ≤ substrate protein remaining % ≤ 80%) | B (80%< substrate protein remaining %≤ 100%) | B (80%< substrate protein remaining %≤ 100%) | – | – | – | – | – | –
O=C1CCC(N2Cc3cc(CN4CCN(c5cc(F)ccc5F)CC4)ccc3C2=S)C(=O)N1 (stereo not shown) [GT-08625, 3-(5-((4-(2,5-difluorophenyl)piperazin-1-yl)methyl)-1-thioxoisoindolin-2-yl)piperidine-2,6-dione] | 60 to 80 | 80 to 100 | – | – | – | – | – | – | A (0% ≤ substrate protein remaining % ≤ 80%) | B (80%< substrate protein remaining %≤ 100%) | B (80%< substrate protein remaining %≤ 100%) | B (80%< substrate protein remaining %≤ 100%) | A (0% ≤ substrate protein remaining % ≤ 80%) | B (80%< substrate protein remaining %≤ 100%)
Cc1cc(N2CCN(Cc3cccc4c3CN(C3CCC(=O)NC3=O)C4=S)CC2)cs1 (stereo not shown) [GT-08298, 3-(4-((4-(5-methylthiophen-3-yl)piperazin-1-yl)methyl)-1-thioxoisoindolin-2-yl)piperidine-2,6-dione] | 60 to 80 | 80 to 100 | – | – | – | – | – | – | B (80%< substrate protein remaining %≤ 100%) | B (80%< substrate protein remaining %≤ 100%) | B (80%< substrate protein remaining %≤ 100%) | A (0% ≤ substrate protein remaining % ≤ 80%) | B (80%< substrate protein remaining %≤ 100%) | B (80%< substrate protein remaining %≤ 100%)
O=C1CCC(N2Cc3c(CN4CC(N5CCc6cc(F)ccc65)C4)cccc3C2=S)C(=O)N1 (stereo not shown) [GT-08635, 3-(4-((3-(5-fluoroindolin-1-yl)azetidin-1-yl)methyl)-1-thioxoisoindolin-2-yl)piperidine-2,6-dione] | 80 to 100 | 80 to 100 | – | – | – | – | – | – | B (80%< substrate protein remaining %≤ 100%) | B (80%< substrate protein remaining %≤ 100%) | B (80%< substrate protein remaining %≤ 100%) | A (0% ≤ substrate protein remaining % ≤ 80%) | B (80%< substrate protein remaining %≤ 100%) | B (80%< substrate protein remaining %≤ 100%)
CC1(C)CCC(CN2C3CCC2CN(Cc2cccc4c2CN(C2CCC(=O)NC2=O)C4=S)C3)=C(c2ccc(Cl)cc2)C1 (stereo not shown) [GT-08291, 3-(4-((8-((4'-chloro-5,5-dimethyl-3,4,5,6-tetrahydro-[1,1-biphenyl]-2-yl)methyl)-3,8-diazabicyclo[3.2.1]octan-3-yl)methyl)-1-thioxoisoindolin-2-yl)piperidine-2,6-dione] | 20 to 30 | 60 to 80 | – | – | – | – | – | – | A (0% ≤ substrate protein remaining % ≤ 80%) | B (80%< substrate protein remaining %≤ 100%) | B (80%< substrate protein remaining %≤ 100%) | A (0% ≤ substrate protein remaining % ≤ 80%) | A (0% ≤ substrate protein remaining % ≤ 80%) | B (80%< substrate protein remaining %≤ 100%)
O=C1CCC(N2Cc3c(CN4CC=C(c5cncc(Cl)c5)CC4)cccc3C2=S)C(=O)N1 (stereo not shown) [GT-08461, 3-(4-((5-chloro-3',6'-dihydro-[3,4'-bipyridin]-1'(2'H)-yl)methyl)-1-thioxoisoindolin-2-yl)piperidine-2,6-dione] | 60 to 80 | 80 to 100 | – | – | – | – | – | – | B (80%< substrate protein remaining %≤ 100%) | B (80%< substrate protein remaining %≤ 100%) | A (0% ≤ substrate protein remaining % ≤ 80%) | A (0% ≤ substrate protein remaining % ≤ 80%) | B (80%< substrate protein remaining %≤ 100%) | B (80%< substrate protein remaining %≤ 100%)
O=C1CCC(N2Cc3c(CN4CCN(c5noc6ccncc56)CC4)cccc3C2=S)C(=O)N1 (stereo not shown) [GT-08838, 3-(4-((4-(isoxazolo[4,5-c]pyridin-3-yl)piperazin-1-yl)methyl)-1-thioxoisoindolin-2-yl)piperidine-2,6-dione] | 53 to 60 | 80 to 100 | – | – | – | – | – | – | A (0% ≤ substrate protein remaining % ≤ 80%) | B (80%< substrate protein remaining %≤ 100%) | B (80%< substrate protein remaining %≤ 100%) | A (0% ≤ substrate protein remaining % ≤ 80%) | B (80%< substrate protein remaining %≤ 100%) | B (80%< substrate protein remaining %≤ 100%)
O=C1CCC(N2Cc3c(CN4CC(c5ccnc6cc(F)ccc56)C4)cccc3C2=S)C(=O)N1 (stereo not shown) [GT-08860, 3-(4-((3-(7-fluoroquinolin-4-yl)azetidin-1-yl)methyl)-1-thioxoisoindolin-2-yl)piperidine-2,6-dione] | 60 to 80 | 80 to 100 | A (0% ≤ substrate protein remaining % ≤ 80%) | B (80%< substrate protein remaining %≤ 100%) | B (80%< substrate protein remaining %≤ 100%) | A (0% ≤ substrate protein remaining % ≤ 80%) | B (80%< substrate protein remaining %≤ 100%) | B (80%< substrate protein remaining %≤ 100%) | – | – | – | – | – | –
